Reference: ChEMBL document CHEMBL1138606, “The discovery of tropane derivatives as nociceptin receptor ligands for the management of cough and anxiety” (Bioorg Med Chem Lett, 2009)
Activity calls are given as the source filed them. The rule behind the calls is not given here.

Columns and labels:
[1] = tested on: Cavia porcellus; assay: Antitussive activity against capsaicin-induced cough in po dosed Hartley guinea pig model after 2 hrs; assay type: functional
[2] = target: Cytochrome P450 3A4 (Homo sapiens, UniProt P08684); assay: Inhibition of CYP3A4; assay type: ADME
Chain of Cytochrome P450 3A4 (P08684 whole entry): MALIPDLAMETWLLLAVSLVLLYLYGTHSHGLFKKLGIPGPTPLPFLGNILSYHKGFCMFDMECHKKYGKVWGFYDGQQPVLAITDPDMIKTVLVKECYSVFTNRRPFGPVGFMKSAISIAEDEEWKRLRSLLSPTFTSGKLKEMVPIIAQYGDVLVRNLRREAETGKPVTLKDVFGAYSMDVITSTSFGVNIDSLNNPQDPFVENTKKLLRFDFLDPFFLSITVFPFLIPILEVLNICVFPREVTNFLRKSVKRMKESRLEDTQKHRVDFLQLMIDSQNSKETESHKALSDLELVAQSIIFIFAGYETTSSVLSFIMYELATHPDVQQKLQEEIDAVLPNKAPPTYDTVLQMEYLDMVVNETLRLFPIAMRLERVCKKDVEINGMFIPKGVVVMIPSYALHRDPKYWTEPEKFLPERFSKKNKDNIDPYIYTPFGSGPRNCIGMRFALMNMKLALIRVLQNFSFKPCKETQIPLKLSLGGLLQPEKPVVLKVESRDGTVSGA

[3] = Cmax in rat at 3 mg/kg, po; assay type: ADME, organism-based; design: dose 3 mg/kg, route oral; conditions: in vivo
[4] = Oral bioavailability in rat at 3 mg/kg; assay type: ADME, organism-based; conditions: in vivo
[5] = target: Cytochrome P450 2D6 (Homo sapiens, UniProt P10635); assay: Inhibition of CYP2D6; assay type: ADME
Chain of Cytochrome P450 2D6 (P10635 whole entry): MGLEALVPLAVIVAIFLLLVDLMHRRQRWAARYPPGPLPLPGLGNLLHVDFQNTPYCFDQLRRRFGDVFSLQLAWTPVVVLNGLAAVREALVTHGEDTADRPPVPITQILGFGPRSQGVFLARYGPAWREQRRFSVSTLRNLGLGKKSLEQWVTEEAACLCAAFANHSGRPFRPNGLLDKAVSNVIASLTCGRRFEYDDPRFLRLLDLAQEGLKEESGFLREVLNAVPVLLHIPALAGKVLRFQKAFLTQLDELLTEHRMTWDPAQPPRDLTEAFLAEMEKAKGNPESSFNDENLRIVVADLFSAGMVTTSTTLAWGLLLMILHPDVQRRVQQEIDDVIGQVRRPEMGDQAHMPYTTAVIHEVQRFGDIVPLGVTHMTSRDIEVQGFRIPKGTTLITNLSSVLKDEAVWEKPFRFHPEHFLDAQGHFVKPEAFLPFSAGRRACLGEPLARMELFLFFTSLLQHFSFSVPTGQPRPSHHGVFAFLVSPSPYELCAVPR

[6] = organism: Cavia porcellus; assay: Anxiolytic activity in Dunkin-Hartley guinea pig pup assessed as reduction in number of vocalization produced due to separation measured after 2 hrs; assay type: functional
[7] = AUC (0 to 24 hrs) in rat at 3 mg/kg, po; assay type: ADME, organism-based; design: time < 24 hr, dose 3 mg/kg, route oral; conditions: plasma
[8] = Half life in rat at 3 mg/kg, po; assay type: ADME, organism-based; design: dose 3 mg/kg, route oral; conditions: in vivo
[9] = tested on: Rattus norvegicus; assay: Volume of distribution at steady state in rat at 3 mg/kg, po; assay type: ADME, organism-based; design: dose 3 mg/kg, route oral; conditions: in vivo
[10] = Clearance in human hepatocytes measured per 10^6 cells; assay type: ADME, cell-based, Liver, Hepatocyte
[11] = Clearance in rat at 3 mg/kg, po; assay type: ADME, organism-based; design: dose 3 mg/kg, route oral; conditions: in vivo
[12] = tested on: Rattus norvegicus; assay: Anxiolytic activity in po dosed CD rats assessed as suppression of conditioned paw licking administered twice per day for 14 days measured after 2 hrs of last dose; assay type: functional
[13] = tested on: Rattus norvegicus; assay: Anxiolytic activity in po dosed CD rats assessed as suppression of conditioned paw licking administered twice per day for 14 days measured after 2 hrs of last dose in presence of […]; assay type: functional, organism-based
[14] = target: T1, Cytochrome P450 2C9 (Homo sapiens, UniProt P11712); assay: Inhibition of CYP2C9 pre-incubated before addition of substrate; assay type: ADME
T1 sequence (P11712 whole entry): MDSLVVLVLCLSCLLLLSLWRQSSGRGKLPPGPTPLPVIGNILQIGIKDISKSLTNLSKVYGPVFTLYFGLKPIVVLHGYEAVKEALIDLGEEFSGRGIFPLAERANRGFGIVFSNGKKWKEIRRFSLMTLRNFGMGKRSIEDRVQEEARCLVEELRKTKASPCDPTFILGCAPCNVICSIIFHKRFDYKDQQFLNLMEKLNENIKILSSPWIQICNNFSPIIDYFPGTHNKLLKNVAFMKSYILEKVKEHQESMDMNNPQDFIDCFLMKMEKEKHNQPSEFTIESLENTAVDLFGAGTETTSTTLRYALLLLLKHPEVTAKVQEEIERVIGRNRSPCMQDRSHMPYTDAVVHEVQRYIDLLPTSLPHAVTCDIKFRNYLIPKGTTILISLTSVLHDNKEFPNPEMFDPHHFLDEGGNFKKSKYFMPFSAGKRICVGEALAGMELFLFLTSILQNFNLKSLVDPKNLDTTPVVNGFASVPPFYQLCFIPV

[15] = target: T1, Cytochrome P450 2C9; assay: Inhibition of CYP2C9 co-incubated with substrate; assay type: ADME

SMILES: NC(=O)C1(c2ccccc2)CC2CCC(C1)N2C(c1ccccc1Cl)c1ccccc1Cl (stereo not given)
- ED50 [1]: 0.3 mg/kg
- IC50 [2]: > 30 µM
- Cmax [3]: 80 nM
- bioavailability [4]: 37%
- IC50 [5]: > 30 µM
- ED50 [6]: 0.4 mg/kg
- AUC(0-t) at 24 h [7]: 0.54 µM·h
- half-life [8]: 1.8 h
- Vdss [9]: 9.1 L/kg
- hepatocyte CLint [10]: 3 µL/min/1e6 cells
- CL/F [11]: 73 mL/min/kg
- ED50 [12]: 1.4 mg/kg
- Activity [13]: inactive
- IC50 [14]: 19 µM
- IC50 [15]: 8 µM
